{"source": "patent US10807971B2", "about": "“Pyrrolidinone compounds” (Eli Lilly and Company, priority 2016, dated 2020)", "key": {"[1]": {"target": "mouse DPP-4 ((29-760)-His) (Mus musculus (Mouse), UniProt P28843)", "sequence (P28843 29-760)": "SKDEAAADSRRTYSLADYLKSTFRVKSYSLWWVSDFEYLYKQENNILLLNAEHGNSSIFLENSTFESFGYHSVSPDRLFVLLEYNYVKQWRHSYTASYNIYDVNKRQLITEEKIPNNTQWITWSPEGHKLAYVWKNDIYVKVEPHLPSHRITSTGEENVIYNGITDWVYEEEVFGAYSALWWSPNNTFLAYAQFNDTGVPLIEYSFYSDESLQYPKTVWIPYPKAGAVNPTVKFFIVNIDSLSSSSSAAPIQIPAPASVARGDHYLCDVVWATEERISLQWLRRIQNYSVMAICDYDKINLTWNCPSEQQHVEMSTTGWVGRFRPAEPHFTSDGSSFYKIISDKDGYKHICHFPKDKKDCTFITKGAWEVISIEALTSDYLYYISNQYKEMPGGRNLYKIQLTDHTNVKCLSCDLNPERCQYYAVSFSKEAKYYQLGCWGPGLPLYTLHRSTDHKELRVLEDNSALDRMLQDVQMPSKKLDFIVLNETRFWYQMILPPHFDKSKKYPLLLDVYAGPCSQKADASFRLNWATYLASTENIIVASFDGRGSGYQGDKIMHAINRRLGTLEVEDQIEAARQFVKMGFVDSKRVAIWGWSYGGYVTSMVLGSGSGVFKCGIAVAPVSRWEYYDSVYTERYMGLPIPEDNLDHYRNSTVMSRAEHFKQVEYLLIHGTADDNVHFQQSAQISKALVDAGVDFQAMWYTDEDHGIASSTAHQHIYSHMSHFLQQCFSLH", "assay": "Enzymatic activity assay of DPP-4 (Gly-Pro-AMC fluorescence)", "type": "biochemical", "conditions": "(SD, n), read-out: mDPP-4 IC50", "method": "(§1) Inhibition of the catalytic activity of human and mouse DPP-4 by the compound in the present invention is monitored by the formation of product fluorescence AMC from substrate Gly-Pro-AMC (Sigma, G2761) on an Envision plate reader. […] The IC50 value is calculated typically from a 10-point dose titration curve using the 4-parameter logistic equation."}, "[2]": {"target": "Human DPP-4 ((39-766)-His) (Homo sapiens (Human), UniProt P27487)", "sequence (P27487 39-766)": "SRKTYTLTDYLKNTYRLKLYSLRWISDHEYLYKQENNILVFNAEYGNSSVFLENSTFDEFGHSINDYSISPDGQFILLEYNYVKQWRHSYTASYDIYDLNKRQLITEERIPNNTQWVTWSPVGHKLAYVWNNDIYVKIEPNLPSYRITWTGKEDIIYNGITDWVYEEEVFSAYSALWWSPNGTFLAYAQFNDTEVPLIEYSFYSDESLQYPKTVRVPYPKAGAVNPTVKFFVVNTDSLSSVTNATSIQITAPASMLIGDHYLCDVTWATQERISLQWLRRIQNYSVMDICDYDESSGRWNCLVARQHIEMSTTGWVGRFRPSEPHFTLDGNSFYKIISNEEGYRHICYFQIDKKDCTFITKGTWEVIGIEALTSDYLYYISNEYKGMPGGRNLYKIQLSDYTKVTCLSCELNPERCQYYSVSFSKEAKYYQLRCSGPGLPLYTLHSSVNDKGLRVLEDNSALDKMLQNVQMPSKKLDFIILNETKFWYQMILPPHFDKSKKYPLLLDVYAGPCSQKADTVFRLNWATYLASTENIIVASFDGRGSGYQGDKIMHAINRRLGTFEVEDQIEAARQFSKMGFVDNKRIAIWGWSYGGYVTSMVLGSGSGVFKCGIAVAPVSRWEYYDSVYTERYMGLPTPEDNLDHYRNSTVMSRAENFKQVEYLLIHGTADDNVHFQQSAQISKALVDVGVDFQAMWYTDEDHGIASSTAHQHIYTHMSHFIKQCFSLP", "assay": "Enzymatic activity assay of DPP-4 (Gly-Pro-AMC fluorescence)", "type": "biochemical", "conditions": "(SD, n), read-out: hDPP-4 IC50", "method": "as §1"}, "obese DIO mice": {"system": "obese DIO mice", "assay": "Therapeutic weight loss effect in HFD feeding induced obese mouse model (DIO mice)", "type": "in vivo", "conditions": "day 14", "method": "To determine the therapeutic weight loss effects and improvement of metabolic parameters, the compound from the invention is tested in a HFD feeding induced obese mouse model (DIO mice). In this model, C57/B16J male mouse is fed with the 60% HFD (D12492i, Research Diets) for 16˜28 weeks to establish obesity with body weight reaching around 50 g. The mice will gradually increase their body weight to about 50 g and maintain that weight in this obese state."}}, "note": "Structures can show the parent of a compound that is named as a salt."}
{"smiles": "N[C@H]1C[C@@H](n2ncc(N3CCC(O)(C(=O)NCc4cc(Cl)cc(Cl)c4F)C3=O)n2)CO[C@@H]1c1cc(F)ccc1F", "note": "(single isomer, unassigned; isomer 1) [Example 11, hydrochloride]", "values": [{"measurement": "IC50", "setting": "[1]", "value": "< 1.52", "unit": "nM"}, {"measurement": "IC50", "setting": "[2]", "value": "< 1.52", "unit": "nM"}]}
{"smiles": "Cl.N[C@H]1C[C@@H](N2Cc3ccc(N4CCC(O)(C(=O)NCc5cc(F)cc(F)c5F)C4=O)cc3C2)CO[C@@H]1c1cc(F)ccc1F", "note": "(single isomer, unassigned; isomer 1) [Example 1]", "values": [{"measurement": "weight loss compared to the vehicle group", "setting": "obese DIO mice; oral 20 mg/kg once daily", "value": "about 8.9%"}]}
{"smiles": "Cl.N[C@H]1C[C@@H](n2cc(N3CCC(O)(C(=O)NCc4cc(Cl)cc(Cl)c4F)C3=O)cn2)CO[C@@H]1c1cc(F)ccc1F", "note": "(single isomer, unassigned; isomer 1) [Example 7]", "values": [{"measurement": "weight loss compared to the vehicle group", "setting": "obese DIO mice; oral 40 mg/kg once daily", "value": "about 4.8%"}]}
